Reference: patent US9938273B2 (Plexxikon Inc., priority 2015, dated 2018)

Key:
[1] = tested on: MOLM-14 F691L cells, FLT3 ITD and FLT3 F691L; assay: Cell proliferation assay (CellTiter-Glo), MOLM-14 F691L; format: cell-based; settings: Homo sapiens, 72 h, 3d-Growth, GMean
Text: The FLT3 inhibitors may be assessed using the MOLM-14, Acute Myeloid Leukemia cell line that endogenously expresses FLT3 ITD or derivatives of the human FLT3 AML cell line which acquired the D835Y (activation loop) of F691L (gatekeeper) mutation after selection in escalating doses of the FLT3 Inhibitor AC220. FLT3 inhibitors may also be assessed using cells that are engineered to express mutant FLT3. For engineered cells, murine Ba/F3 cells were transfected with full-length FLT3 ITD/D835Y mutations. The parental BA/F3 cells are dependent upon Interleukin-3 (IL-3) for survival, and introduction of the FLT3 constructs rendered these cells dependent upon FLT3 kinase activity when cultured in the absences of IL-3. Engineered BA/F3 cell growth assays can be performed in either the […] of IL-3, to assess the compound inhibition of FLT3 or to detect the presence of off-target activity, respectively. Inhibitors of FLT3 kinase activity reduce or eliminate the FLT3 oncogenic signaling, resulting in reduced cell proliferation. This inhibition is measured as a function of compound concentration to asses IC50 values.
Cell lines used in proliferation assays are as follows in Table 3:
Cells were seeded at 1×10^4 cells per well of a 96 well cell culture plate in 50 μl of cell culture medium. Compounds were dissolved in DMSO, typically at a concentration of 0.5 mM and were serially diluted 1:3 for a total of eight points and added to the cells to final concentrations of […], 0.0041, 0.0014 and 0.00046 μM in 100 μl cell culture medium (final concentration 0.2% DMSO). […] The cells were incubated at 37° C., 5% CO2 for three days. CellTiter-Glo Buffer (Promega Cell Viability Assay catalog #G7573) and substrate were equilibrated to room temperature, and enzyme/substrate Recombinant Firefly Luciferase/Beetle Luciferin was reconstituted. The cell plates were equilibrated to room temperature for 30 minutes, then lysed by addition of an equivalent volume of the Celltiter-Glo Reagent. The plate was mixed for 10 minutes on a plate shaker to lyse the cells. The plates were read on a Tecan M1000 using Luminescence protocol modified to read 0.1 s per well. The luminescence reading assesses the ATP content, which correlates directly with cell number such that the reading as a function of compound concentration was used to determine the IC50 value.

FLT3-D835Y = target: T1, FLT3-D835Y (Homo sapiens, UniProt P36888, D835Y); assay: AlphaScreen kinase assay with recombinant enzyme, FLT3-D835Y; format: biochemical; settings: 8pt, GMean
T1 construct: purchased Invitrogen PV3967
T1 sequence (P36888 27-993 D835Y): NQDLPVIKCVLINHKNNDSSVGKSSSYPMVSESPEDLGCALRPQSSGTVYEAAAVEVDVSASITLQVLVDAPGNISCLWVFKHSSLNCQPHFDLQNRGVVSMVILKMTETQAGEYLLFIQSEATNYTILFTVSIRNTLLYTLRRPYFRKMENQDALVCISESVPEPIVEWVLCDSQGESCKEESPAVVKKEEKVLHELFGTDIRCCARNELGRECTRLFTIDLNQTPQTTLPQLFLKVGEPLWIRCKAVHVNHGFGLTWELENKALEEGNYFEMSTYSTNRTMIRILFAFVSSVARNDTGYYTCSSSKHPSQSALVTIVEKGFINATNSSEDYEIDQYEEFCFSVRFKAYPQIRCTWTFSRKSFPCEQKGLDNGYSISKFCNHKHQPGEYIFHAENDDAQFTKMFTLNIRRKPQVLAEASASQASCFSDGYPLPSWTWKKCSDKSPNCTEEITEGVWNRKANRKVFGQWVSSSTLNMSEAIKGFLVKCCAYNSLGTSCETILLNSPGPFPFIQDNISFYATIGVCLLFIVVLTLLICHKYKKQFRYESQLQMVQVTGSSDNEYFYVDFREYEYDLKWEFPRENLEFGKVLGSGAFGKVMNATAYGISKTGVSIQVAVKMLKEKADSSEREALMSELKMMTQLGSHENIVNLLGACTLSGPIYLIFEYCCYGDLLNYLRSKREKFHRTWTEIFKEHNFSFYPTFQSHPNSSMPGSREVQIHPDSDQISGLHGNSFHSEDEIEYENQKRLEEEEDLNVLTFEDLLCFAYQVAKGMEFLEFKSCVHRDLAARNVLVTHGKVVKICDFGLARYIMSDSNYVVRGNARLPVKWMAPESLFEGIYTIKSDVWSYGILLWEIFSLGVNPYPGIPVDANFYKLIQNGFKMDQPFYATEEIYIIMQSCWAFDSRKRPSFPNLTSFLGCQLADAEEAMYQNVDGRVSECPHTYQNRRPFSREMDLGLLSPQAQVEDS
Method in brief: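 Inhibition was measured as a drop in AlphaScreen signal arising from phosphotyrosine-bead capture of a biotinylated poly(Glu4-Tyr) peptide (30 nM) phosphorylated by recombinant kinase. For IC50 work the stated final concentration was 10 μM for the FLT3 mutants and 100 μM for c-KIT.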

CN[C@@H]1CCN(C(=O)c2ccc(-c3cnc4[nH]c(-c5ccccc5)cc4c3)s2)C1 [Compound P-0106, [(3R)-3-(methylamino)pyrrolidin-1-yl]-[5-(2-phenyl-1H-pyrrolo[2,3-b]pyridin-5-yl)-2-thienyl]methanone]
IC50 [1]: 0.0001 to 10 µM
IC50 (FLT3-D835Y): 0.0001 to 10 µM

O=S(=O)(NC1CC1)c1cccc(-c2cnc3[nH]c(-c4ccccc4)cc3c2)n1 [Compound P-0109, N-cyclopropyl-6-(2-phenyl-1H-pyrrolo[2,3-b]pyridin-5-yl)pyridine-2-sulfonamide]
IC50 [1]: 0.0001 to 10 µM
IC50 (FLT3-D835Y): 0.0001 to 10 µM

N#CC1(NC(=O)c2cccc(-c3cnc4[nH]c(-c5ccccc5)cc4c3)n2)CC1 [Compound P-0111, N-(1-cyanocyclopropyl)-6-(2-phenyl-1H-pyrrolo[2.3-b]pyridin-5-yl]pyridine-2-carboxamide]
IC50 [1]: 0.0001 to 10 µM
IC50 (FLT3-D835Y): 0.0001 to 10 µM

O=C(c1cccc(-c2cnc3[nH]c(-c4cnn(CC(F)(F)F)c4)cc3c2)n1)N1CCC(F)(F)C1 [Compound P-0112, (3,3-difluoropyrrolidin-1-yl)-[6-[2-[1-(2,2,2-trifluoroethyl)pyrazol-4-yl]-1H-pyrrolo[2,3-b]pyridin-5-yl]-2-pyridyl]methanone]
IC50 [1]: 0.0001 to 10 µM
IC50 (FLT3-D835Y): 0.0001 to 10 µM

CC(C)(C#N)CNC(=O)c1cccc(-c2cnc3[nH]c(-c4cnn(CC(F)(F)F)c4)cc3c2)n1 [Compound P-0113, N-(2-cyano-2-methyl-propyl)-6-[2-[1-(2,2,2-trifluoroethyl)pyrazol-4-yl]-1H-pyrrolo[2,3-b]pyridin-5-yl]pyridine-2-carboxamide]
IC50 [1]: 0.0001 to 10 µM
IC50 (FLT3-D835Y): 0.0001 to 10 µM

N#CC1(NC(=O)c2cccc(-c3cnc4[nH]c(-c5ccccc5)cc4c3)n2)CCC1 [Compound P-0114, N-(1-cyanocyclobutyl)-6-(2-phenyl-1H-pyrrolo[2,3-b]pyridin-5-yl)pyridine-2-carboxamide]
IC50 [1]: 0.0001 to 10 µM
IC50 (FLT3-D835Y): 0.0001 to 10 µM

N#CC1(F)CCN(C(=O)c2cccc(-c3cnc4[nH]c(-c5ccccc5)cc4c3)n2)C1 (stereo not drawn) [Compound P-0115, 3-fluoro-1-[6-(2-phenyl-1H-pyrrolo[2,3-b]pyridin-5-yl)pyridine-2-carbonyl]pyrrolidine-3-carbonitrile]
IC50 [1]: 0.0001 to 10 µM
IC50 (FLT3-D835Y): 0.0001 to 10 µM

CC(C)(C#N)NC(=O)c1cccc(-c2cnc3[nH]c(-c4ccccc4)cc3c2)n1 [Compound P-0118, N-(1-cyano-1-methyl-ethyl)-6-(2-phenyl-1H-pyrrolo[2,3-b]pyridin-5-yl)pyridine-2-carboxamide]
IC50 [1]: 0.0001 to 10 µM
IC50 (FLT3-D835Y): 0.0001 to 10 µM

N#C[C@@H]1CCN(C(=O)c2cccc(-c3cnc4[nH]c(-c5ccccc5)cc4c3)n2)C1 [Compound P-0122, (3R)-1-[6-(2-phenyl-1H-pyrrolo[2,3-b]pyridin-5-yl)pyridine-2-carbonyl]pyrrolidine-3-carbonitrile]
IC50 [1]: 0.0001 to 10 µM
IC50 (FLT3-D835Y): 0.0001 to 10 µM

CC(C)(C#N)CNC(=O)c1cccc(-c2cnc3[nH]c(C4=CCCCC4)cc3c2)n1 [Compound P-0123, N-(2-cyano-2-methyl-propyl)-6-[2-(cyclohexen-1-yl)-1H-pyrrolo[2,3-b]pyridin-5-yl]pyridine-2-carboxamide]
IC50 [1]: 0.0001 to 10 µM
IC50 (FLT3-D835Y): 0.0001 to 10 µM

CC1(C)CC=C(c2cc3cc(-c4cccc(C(=O)N5CCC(C#N)C5)n4)cnc3[nH]2)CC1 (stereo not drawn) [Compound P-0131, 1-[6-[2-(4,4-dimethylcyclohexen-1-yl)-1H-pyrrolo[2,3-b]pyridin-5-yl]pyridine-2-carbonyl]pyrrolidine-3-carbonitrile]
IC50 [1]: 0.0001 to 10 µM
IC50 (FLT3-D835Y): 0.0001 to 10 µM

N#CC1CCN(C(=O)c2cccc(-c3cnc4[nH]c(C5=CCOCC5)cc4c3)n2)C1 (stereo not drawn) [Compound P-0132, 1-[6-[2-(3,6-dihydro-2H-pyran-4-yl)-1H-pyrrolo[2,3-b]pyridin-5-yl]pyridine-2-carbonyl]pyrrolidine-3-carbonitrile]
IC50 [1]: 0.0001 to 10 µM
IC50 (FLT3-D835Y): 0.0001 to 10 µM

CC(C)(C#N)CNC(=O)c1cccc(-c2cnc3[nH]c(-c4ccnc(C5CC5)c4)cc3c2)n1 [Compound P-0152, N-(2-cyano-2-methyl-propyl)-6-[2-(2-cyclopropyl-4-pyridyl)-1H-pyrrolo[2,3-b]pyridin-5-yl]pyridine-2-carboxamide]
IC50 (FLT3-D835Y): 0.0001 to 10 µM

COc1cc(-c2cc3cc(-c4cccc(C(=O)NCC(C)(C)C#N)n4)cnc3[nH]2)ccn1 [Compound P-0154, N-(2-cyano-2-methyl-propyl)-6-[2-(2-methoxy-4-pyridyl)-1H-pyrrolo[2,3-b]pyridin-5-yl]pyridine-2-carboxamide]
IC50 (FLT3-D835Y): 0.0001 to 10 µM

Cn1cc(-c2cc3cc(-c4cccc(C(=O)NCC(C)(C)C#N)n4)cnc3[nH]2)ccc1=O [Compound P-0155, N-(2-cyano-2-methyl-propyl)-6-[2-(1-methyl-6-oxo-3-pyridyl)-1H-pyrrolo[2,3-b]pyridin-5-yl]pyridine-2-carboxamide]
IC50 (FLT3-D835Y): 0.0001 to 10 µM

CC(C)(C#N)CNC(=O)c1cccc(-c2cnc3[nH]c(C4=CCSCC4)cc3c2)n1 [Compound P-0159, N-(2-cyano-2-methyl-propyl)-6-[2-(3,6-dihydro-2H-thiopyran-4-yl)-1H-pyrrolo[2,3-b]pyridin-5-yl]pyridine-2-carboxamide]
IC50 (FLT3-D835Y): 0.0001 to 10 µM

Cc1cc(-c2cc3cc(-c4cccc(C(=O)NC(C)(C)C#N)n4)cnc3[nH]2)cnn1 [Compound P-0163, N-(1-cyano-1-methyl-ethyl)-6-[2-(6-methylpyridazin-4-yl)-1H-pyrrolo[2,3-b]pyridin-5-yl]pyridine-2-carboxamide]
IC50 (FLT3-D835Y): 0.0001 to 10 µM

C#Cc1cc2cc(-c3cccc(C(=O)NC(C)(C)C#N)n3)cnc2[nH]1 [Compound P-0175, N-(1-cyano-1-methyl-ethyl)-6-(2-ethynyl-1H-pyrrolo[2,3-b]pyridin-5-yl)pyridine-2-carboxamide]
IC50 (FLT3-D835Y): 0.0001 to 10 µM

Cn1cncc1C#Cc1cc2cc(-c3cccc(C(=O)NC(C)(C)C#N)n3)cnc2[nH]1 [Compound P-0177, N-(1-cyano-1-methyl-ethyl)-6-[2-[2-(3-methylimidazol-4-yl)ethynyl]-1H-pyrrolo[2,3-b]pyridin-5-yl]pyridine-2-carboxamide]
IC50 (FLT3-D835Y): 0.0001 to 10 µM

CC(C)(NC(=O)c1cccc(-c2cnc3[nH]c(C4=CCN(C(=O)C5CC5)C4)cc3c2)n1)C(N)=O [Compound P-0179, N-(2-amino-1,1-dimethyl-2-oxo-ethyl)-6-[2-[1-(cyclopropanecarbonyl)-2,5-dihydropyrrol-3-yl]-1H-pyrrolo[2,3-b]pyridin-5-yl]pyridine-2-carboxamide]
IC50 (FLT3-D835Y): 0.0001 to 10 µM

CC(C)(C#N)NC(=O)c1cccc(-c2cnc3[nH]c(-c4ccc(C5CC5)cc4)cc3c2)n1 [Compound P-0189, N-(1-cyano-1-methyl-ethyl)-6-[2-(4-cyclopropylphenyl)-1H-pyrrolo[2,3-b]pyridin-5-yl]pyridine-2-carboxamide]
IC50 (FLT3-D835Y): 0.0001 to 10 µM
